The numbers were not newly measured in patent US7863277B1, “Topical antipsychotic composition” (Medcara, L.L.C., priority 2005, dated 2011), which cites them from elsewhere.

The conditions of the data set: decreasing absorption when not taken concurrently with food.

Turning to `O=C1Cc2cc(CCN3CCN(c4nsc5ccccc45)CC3)c(Cl)cc2N1` [ziprasidone, 5-(2-(4-(1,2-benzisothiazol-3-yl)piperazinyl)ethyl)-6-chloro-1,3-dihydro-2(1H)-indole-2-one], the Oral bioavailability result is reported as “about 60%”.
